In ChEMBL document CHEMBL5376014, “Role of heterocycles in inhibition of VEGFR-2 - a recent update (2019-2022)” (RSC Med Chem, 2024):
pIC50: −log10 of the molar value.

Key:
[1] = target: T1, Vascular endothelial growth factor receptor 2 (Homo sapiens, UniProt P35968); experiment: Inhibition of VEGFR-2 (978 to 1408 residues) (unknown origin) using pEY (4:1) as substrate for 20 min in the presence of ATP by ELISA method
[2] = target: T1, Vascular endothelial growth factor receptor 2; experiment: Inhibition of human recombinant VEGFR-2 kinase activity using poly(Glu-Tyr) at 4:1 ratio as substrate incubated for 60 mins by ELISA
MDA-MB-231 [3] = experiment: Antiproliferative activity against human MDA-MB-231 cells assessed as cell growth inhibition measured after 48 hrs by MTT assay; assay type: functional, cell-based; details: MDA-MB-231, 48 h
[4] = target: T1, Vascular endothelial growth factor receptor 2; experiment: Inhibition of human recombinant VEGFR-2 expressed in Sf21 insect cells incubated for 60 mins by ELISA
[5] = target: T1, Vascular endothelial growth factor receptor 2; experiment: Inhibition of human recombinant VEGFR-2 kinase activity using poly(Glu-Tyr) at 4:1 ratio as substrate incubated for 60 mins by ELISA method
[6] = target: T1, Vascular endothelial growth factor receptor 2; experiment: Inhibition of human VEGFR-2
[7] = target: T1, Vascular endothelial growth factor receptor 2; experiment: Inhibition of human recombinant VEGFR-2 in the presence of ATP
[8] = target: T1, Vascular endothelial growth factor receptor 2; experiment: Inhibition of VEGFR-2 (unknown origin) kinase activity using poly(Glu-Tyr) at 4:1 ratio as substrate in presence of ATP incubated for 1 hr by ELISA
[9] = target: T1, Vascular endothelial growth factor receptor 2; experiment: Inhibition of recombinant VEGFR-2 (unknown origin)
[10] = target: T1, Vascular endothelial growth factor receptor 2; experiment: Inhibition of VEGFR-2 (unknown origin) incubated for 45 mins by ELISA
[11] = Inhibition of tyrosine kinase in human PANC-1 cells; assay type: cell-based
MCF7 [12] = experiment: Antiproliferative activity against human MCF7 cells assessed as reduction in cell viability incubated for 24 hrs by MTT assay; assay type: functional, cell-based; details: MCF7, 24 h
PC-3 = experiment: Antiproliferative activity against human PC-3 cells assessed as inhibition of cell growth incubated for 48 hrs by MTT assay; assay type: functional, cell-based; details: PC-3, 48 h
HepG2 [13] = experiment: Antiproliferative activity against human HepG2 cells assessed as reduction in cell viability by MTT assay; assay type: functional, cell-based
[14] = target: T1, Vascular endothelial growth factor receptor 2; experiment: Inhibition of VEGFR-2 (unknown origin) incubated for […] by ELISA method
[15] = target: T1, Vascular endothelial growth factor receptor 2; experiment: Inhibition of VEGFR-2 (unknown origin) kinase activity using poly(Glu-Tyr) at 4:1 ratio as substrate in presence of ATP incubated for 5 mins by ELISA method
[16] = target: T1, Vascular endothelial growth factor receptor 2; experiment: Inhibition of VEGFR-2 (unknown origin)
HepG2 [17] = experiment: Cytotoxicity against human HepG2 cells assessed as cell growth inhibition; assay type: functional, cell-based
MCF7 [18] = experiment: Cytotoxicity against human MCF7 cells assessed as cell growth inhibition; assay type: functional, cell-based
HepG2 [19] = experiment: Anticancer activity against human HepG2 cells assessed as inhibition of cell growth incubated for 24 hrs by MTT assay; assay type: functional, cell-based; details: HepG2, 24 h
MCF7 [20] = experiment: Anticancer activity against human MCF7 cells assessed as inhibition of cell growth incubated for 24 hrs by MTT assay; assay type: functional, cell-based; details: MCF7, 24 h
[21] = target: T1, Vascular endothelial growth factor receptor 2; experiment: Inhibition of human recombinant VEGFR-2 by ELISA method
[22] = target: T1, Vascular endothelial growth factor receptor 2; experiment: Inhibition of human recombinant VEGFR-2 kinase activity using poly(Glu-Tyr) at 4:1 ratio as substrate incubated for […] by ELISA method
MDA-MB-231 [23] = experiment: Cytotoxicity against human MDA-MB-231 cells assessed as reduction in cell viability incubated for 72 hrs by MTT assay; assay type: functional, cell-based; details: MDA-MB-231, 72 h
A549 = experiment: Cytotoxicity against human A549 cells assessed as reduction in cell viability incubated for 72 hrs by MTT assay; assay type: functional, cell-based; details: A549, 72 h
HeLa = experiment: Cytotoxicity against human HeLa cells assessed as reduction in cell viability incubated for 24 hrs by MTT assay; assay type: functional, cell-based
[24] = target: T1, Vascular endothelial growth factor receptor 2; experiment: Inhibition of VEGFR-2 (unknown origin)
[25] = target: T1, Vascular endothelial growth factor receptor 2; experiment: Inhibition of recombinant VEGFR-2 (unknown origin); remark: listed apart in the source
HepG2 [26] = experiment: Anticancer activity against human HepG2 cells assessed as reduction in cell viability measured after 72 hrs by MTT assay; assay type: functional, cell-based; details: HepG2, 72 h
[27] = target: T1, Vascular endothelial growth factor receptor 2; experiment: Inhibition of human recombinant VEGFR-2
[28] = target: T1, Vascular endothelial growth factor receptor 2; experiment: Inhibition of human VEGFR-2 kinase activity using poly(Glu-Tyr) at 4:1 ratio as substrate preincubated for 30 mins followed by compound addition incubated for 1 hrs by ELISA

T1 sequence (P35968 whole entry, the tested form may be a part): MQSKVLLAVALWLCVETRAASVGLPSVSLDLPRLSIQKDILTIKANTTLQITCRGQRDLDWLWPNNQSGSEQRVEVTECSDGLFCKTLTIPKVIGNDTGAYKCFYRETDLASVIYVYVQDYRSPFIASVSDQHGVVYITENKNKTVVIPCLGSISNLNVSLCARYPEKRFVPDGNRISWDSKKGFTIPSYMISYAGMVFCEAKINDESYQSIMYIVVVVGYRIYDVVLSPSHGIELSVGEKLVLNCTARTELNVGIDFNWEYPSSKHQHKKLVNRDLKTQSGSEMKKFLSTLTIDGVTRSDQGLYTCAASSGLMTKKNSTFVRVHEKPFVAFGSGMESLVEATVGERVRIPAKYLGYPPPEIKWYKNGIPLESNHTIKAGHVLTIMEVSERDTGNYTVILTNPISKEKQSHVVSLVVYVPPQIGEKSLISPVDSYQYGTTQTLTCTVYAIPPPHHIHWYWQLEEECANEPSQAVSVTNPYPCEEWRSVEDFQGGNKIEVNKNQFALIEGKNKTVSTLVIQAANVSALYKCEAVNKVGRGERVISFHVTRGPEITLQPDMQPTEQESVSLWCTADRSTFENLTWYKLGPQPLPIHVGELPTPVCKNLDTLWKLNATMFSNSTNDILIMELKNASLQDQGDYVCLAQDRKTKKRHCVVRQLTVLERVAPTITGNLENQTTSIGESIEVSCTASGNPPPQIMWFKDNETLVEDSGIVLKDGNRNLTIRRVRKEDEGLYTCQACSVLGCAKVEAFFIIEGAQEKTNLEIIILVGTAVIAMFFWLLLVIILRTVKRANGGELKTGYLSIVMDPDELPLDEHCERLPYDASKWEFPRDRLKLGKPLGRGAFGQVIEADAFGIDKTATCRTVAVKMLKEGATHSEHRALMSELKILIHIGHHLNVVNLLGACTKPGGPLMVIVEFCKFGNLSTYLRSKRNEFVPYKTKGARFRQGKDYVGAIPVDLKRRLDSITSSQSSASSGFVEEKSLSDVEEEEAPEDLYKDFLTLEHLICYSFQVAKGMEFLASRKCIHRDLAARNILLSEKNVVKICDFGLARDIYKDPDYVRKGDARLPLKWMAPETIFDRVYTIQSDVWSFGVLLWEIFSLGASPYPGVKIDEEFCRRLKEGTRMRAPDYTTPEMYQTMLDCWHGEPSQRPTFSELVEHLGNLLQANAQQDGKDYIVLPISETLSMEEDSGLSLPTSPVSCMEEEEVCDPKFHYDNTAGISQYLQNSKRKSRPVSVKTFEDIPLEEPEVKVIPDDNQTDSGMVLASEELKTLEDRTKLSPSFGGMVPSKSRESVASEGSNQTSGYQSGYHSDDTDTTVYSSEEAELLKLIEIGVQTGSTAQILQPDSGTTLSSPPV

Molecule `CC(=O)N1N=C(C2CCCO2)CC1c1cn(-c2ccccc2)nc1-c1cccc([N+](=O)[O-])c1` (stereo not given) has a pIC50 [1] of 6.66.

With `Cc1ccc(NC(=O)c2ccc(NC(=O)CN3C(=O)S/C(=C/c4ccccc4)C3=O)cc2)cc1` the pIC50 [2] was 6.60.

Work on `COc1cc(/C=C2\CCCn3c2nc2c(cnn2C)c3=O)cc(OC)c1OC` yielded a pIC50 (MDA-MB-231 [3]) of 7.85 and a pIC50 [4] of 7.88.

Work on `CC(=O)c1ccc(NC(=O)CSC2=NC(=O)C(C#N)C(c3ccccc3)N2)cc1` (stereo not given) yielded a pIC50 [5] of 6.41.

For `CCOc1ccc(Nc2nnc3c4c(cccc24)NC(=S)N3Cc2ccccc2)cc1`, the pIC50 [6] was 7.52.

In the case of `NC(=O)CCn1cc(-c2ccc3ncnc(Nc4cc(O)ccc4F)c3c2)nn1`, the pIC50 [7] was 7.92.

`COc1cc(-c2cc(-c3ccc4ccccc4c3)nc(NN)c2C#N)ccc1O` showed a pIC50 [8] of 9.72.

`COc1cc(C2NC(SCC(=O)Nc3ccc(C(C)=O)cc3)=NC(=O)C2C#N)cc(OC)c1OC` (stereo not given) showed a pIC50 [5] of 6.70.

`N#Cc1c(-c2ccc([N+](=O)[O-])cc2)cc(-c2ccc3ccccc3c2)nc1NN` gave a pIC50 [8] of 9.47.

`COc1ccc(C2=Nn3c(N/N=C4\C(=O)Nc5ccc(F)cc54)nnc3SC2)cc1` showed a pIC50 [9] of 6.36.

Molecule `Cc1ccc(C)c(NC(=O)CSc2nc3ccccc3c(=O)n2-c2ccc(S(N)(=O)=O)cc2)c1` has a pIC50 [10] of 6.32.

Molecule `N=c1cc(N)nc2sc(NC(=O)c3cccs3)nn12` has a pIC50 [11] of 8.09.

`CCn1c(SCC(=O)NNC(=O)c2ccccc2)nc2ccc([N+](=O)[O-])cc2c1=O` gave a pIC50 (MCF7 [12]) of 4.51, a pIC50 (PC-3) of 4.58 and a pIC50 (HepG2 [13]) of 4.76. The pIC50 [14] was 5.34.

`Cc1nc2ccccc2n(CC(=O)Nc2ccc(C(=O)NNC(=O)c3ccccc3O)cc2)c1=O` showed a pIC50 [15] of 5.92.

`O=C(NC1=NN2C(=O)/C(=C\c3ccco3)N=C2S1)c1cccs1` gave a pIC50 [11] of 8.03.

`O=C(N/N=C/c1ccc(Cl)cc1)c1ccc(Nc2ncnc3sc4c(c23)CCCC4)cc1` showed a pIC50 [16] of 6.64.

With `Cc1nc2ccccc2n(CC(=O)Nc2ccc(C(=O)NC(C)(C)C)cc2)c1=O` the pIC50 (HepG2 [17]) was 5.35 and the pIC50 (MCF7 [18]) was 5.11.

Molecule `COc1ccc(NC(=O)c2ccc(NC(=O)CSc3nnc4c5nncn5c5ccccc5n34)cc2)cc1` has a pIC50 (HepG2 [19]) of 5.48, a pIC50 (MCF7 [20]) of 5.36 and a pIC50 [21] of 5.49.

In the case of `COc1cc(/C=C/C(=O)c2ccc(N3CCNCC3)cc2)ccc1F`, the pIC50 [22] was 6.24.

In the case of `O=C(CN1C(=O)S/C(=C/c2ccccc2)C1=O)Nc1ccc(C(=O)NCc2ccccc2)cc1`, the pIC50 [2] was 6.55.

`CCc1ccc(NC(=O)c2ccc(NC(=O)CN3C(=O)S/C(=C/c4ccccc4)C3=O)cc2)cc1` showed a pIC50 [2] of 6.66.

In the case of `NC(=O)CCn1cc(-c2ccc3ncnc(Nc4ccc(F)c(O)c4)c3c2)nn1`, the pIC50 [7] was 7.19.

For `O=[N+]([O-])c1cccc(-c2nn(-c3ccccc3)cc2C2CC(C3CCCO3)=NN2c2ccccc2)c1` (stereo not given), the pIC50 [1] was 6.04.

For `CCOC(=O)CSc1nc2ccc(C)cc2c(=O)n1-c1ccc(F)cc1`, the pIC50 (MDA-MB-231 [23]) was 5.92, the pIC50 (A549) was 6.24 and the pIC50 (HeLa) was 5.90.

Work on `COC(C)Oc1cc2ncnc(Oc3ccc(NC(=O)C4(C(=O)Nc5ccc(F)cc5)CC4)cc3)c2c2c1OCCO2` (stereo not given) yielded a pIC50 [24] of 8.06.

Work on `Cc1nc2ccccc2n(CC(=O)Nc2ccc(C(=O)NCc3ccccc3)cc2)c1=O` yielded a pIC50 [15] of 5.96.

Molecule `O=C(CCSc1nc2ccccc2o1)Nc1ccc(S(=O)(=O)NC(=O)NC2CCCCC2)cc1` has a pIC50 [25] of 7.10.

`N#Cc1c(-c2ccc(Cl)cc2)cc(-c2ccc3ccccc3c2)nc1NN` showed a pIC50 [8] of 9.60.

`CC1=NN(c2ccc([N+](=O)[O-])cc2[N+](=O)[O-])C(=O)/C1=C\c1cn(-c2ccccc2)nc1-c1cccc([N+](=O)[O-])c1` gave a pIC50 [1] of 6.09.

With `COc1cccc(CNC(=O)CSc2nc3ccccc3c(=O)n2-c2ccc(S(N)(=O)=O)cc2)c1OC` the pIC50 [10] was 6.62.

`C/C(=N\NC(=O)c1ccc(Nc2ncnc3sc4c(c23)CCCC4)cc1)c1ccccc1` showed a pIC50 [16] of 6.44.

Work on `Fc1ccc(Nc2nnc3c4c(cccc24)NC(=S)N3Cc2ccccc2)cc1` yielded a pIC50 (HepG2 [26]) of 6.66 and a pIC50 [6] of 6.68.

For `COc1cc2ncnc(Oc3ccc(NC(=O)C4(C(=O)Nc5ccc(F)cc5)CC4)cc3F)c2c2c1OCCO2`, the pIC50 [24] was 8.46.

`N#C/C(=C\c1cccs1)c1nnc(NC(=O)c2ccco2)s1` showed a pIC50 [27] of 8.12.

Work on `N#CCc1nnc(NC(=O)c2ccco2)s1` yielded a pIC50 [27] of 8.13.

Molecule `COC(C)Oc1cc2ncnc(Oc3ccc(NC(=O)C4(C(=O)Nc5ccc(F)cc5)CC4)cc3F)c2c2c1OCCO2` (stereo not given) has a pIC50 [24] of 8.44.

`O=C(CSc1nnc2c3nncn3c3ccccc3n12)Nc1ccc(C(=O)Nc2cncs2)cc1` gave a pIC50 [21] of 5.51.

For `O=C(/C=C/c1cccc(F)c1)c1ccc(N2CCNCC2)cc1`, the pIC50 [22] was 6.10.

In the case of `Cc1ccc(S(=O)(=O)Nc2ccc(-c3cc(-c4cccc(F)c4)c(C#N)c(N)n3)cc2)cc1`, the pIC50 [28] was 5.44.

`O=C(CSc1nc2ccc([N+](=O)[O-])cc2c(=O)n1-c1ccccc1)NNC(=O)c1ccccc1` gave a pIC50 [14] of 5.32.
